Laboratory results as given in patent publication US11938121B2, “Treatment of infections and biofilm formation using a cellulose synthase inhibitor” (Purdue Research Foundation, priority 2020, dated 2024).

Columns and labels:
Arabidopsis Col-0 [1] = test: Crystalline cellulose content measurement of cell wall; format: in vivo, Arabidopsis thaliana; details: 1 μM, 7-day-old dark-grown seedlings
Procedure: Arabidopsis Col-0 seeds were sown on growth medium supplemented with 0.1% DMSO, 1 μM ES20, or different concentrations of ES20 analogs. […] Cellulose extraction and measurement were performed as previously described (Huang et al., 2020).

[2] = target: T1, GFP-CESA6c (central cytosolic domain of AtCESA6) (Arabidopsis thaliana, UniProt Q94JQ6); test: MST assay with GFP-CESA6c; format: binding; details: 100 nM GFP-CESA6c
T1 construct: made in house; host or cells: E. coli
Text: (§1) To obtain the central cytosolic domain of AtCESA6 for the MST assay, we inserted the GFP coding sequence into the SacI and PstI restriction enzyme sites of the pRSF-Duet-1 vector (Huang et al., 2020). The GFP coding sequence was amplified from the pUBN-GFP-DEST vector. The sequence encoding the central cytosolic domain of CESA6 (CESA6c) was amplified from Col-0 cDNA and fused with GFP at the C-terminus. CESA6c construct was used as a template for creating CESA6c^P595S construct by site-directed mutagenesis. Protein purification was performed as previously described (Huang et al., 2020).
(§2) MST assays were carried out using a Monolith NT.115 (NanoTemper) machine at the Chemical Genomics Facility at Purdue University. […] The ES20-1 was dissolved in DMSO, and the final concentration of DMSO was 5% (vol/vol). MST standard capillaries were used to load the samples into the MST instrument. Triplicate reactions were performed for each test. The MST data were processed using MO. Affinity Analysis Version 2.3 software.

Arabidopsis Col-0 [3] = details: 1 μM; cited from earlier work
Komagataeibacter xylinus [4] = test: K. xylinus cell growth on HS solid medium; format: cell-based; details: 6 days
Text: Based on primary protein sequence analysis and a comparison of three-dimensional protein structures, the catalytic sites of cellulose synthases are highly conserved across kingdoms (Huang et al., 2020, Purushotham et al., 2020). The amino acids that are directly involved in glucan chain initiation, elongation, and translocation are conserved between plant and bacterial cellulose synthases (Huang et al., 2020). Based on the conservation of catalytic sites in cellulose synthases, we hypothesized that ES20 and ES20-1 would inhibit bacterial cellulose biosynthesis as well. We chose to test the effects of ES20 and ES20-1 on cell growth and cellulose production in Komagataeibacter xylinus (K. xylinus, previously known as Gluconacetobacter xylinus) because this bacterium produces abundant cellulose. We first tested whether ES20 and ES20-1 affect K. xylinus cell growth. We grew K. xylinus cells in liquid […] (HS) medium and then we inoculated 20 μL of series diluted culture to HS solid growth medium supplemented with DMSO (0.1%) or different concentrations of ES20 and ES20-1. […] We found ES20 and ES20-1 affect K. xylinus colony morphology as well. […] Wrinkles radiating structure is often observed in cellulose-producing bacteria strains and this structure is often affected when cellulose biosynthesis is disrupted.
Komagataeibacter xylinus (previously named Gluconacetobacter xylinus) ATCC strain 700178 was obtained from ATCC (Manassas, Va., USA) to evaluate cellulose production. HS (Hestrin and Schramm) medium was used for culture; HS liquid medium contains 2.0% glucose (w/v), 0.5% yeast extract (w/v), 0.5% peptone (w/v), 0.27% Na2HPO4 (w/v), and 0.15% citric acid (w/v), pH 5.0, and HS solid medium was solidified with 1.8% agar (w/v). To prepare the initial inoculation source, a single K. xylinus colony grown on HS solid medium was transferred to HS liquid medium and cultured at 26° C. for 5 days under static conditions. We used cells from the bottom of the liquid culture as the initial inoculation source to avoid biofilm aggregates at the air-liquid interface. To test the effect of ES20 and ES20-1 on the bacteria growth, initial inoculation source was series diluted and 20 μL culture from each diluted solution was dropped on HS solid medium supplemented with DMSO (0.1%) or different concentrations of ES20 and ES20-1 and cultured at 26° C. for 6 days after the dropped culture was completely dry. To test the effects of ES20 and ES20-1 on cellulose production, the prepared inoculation source was inoculated at a dilution ratio of 1:1000 dilution in HS liquid medium supplemented with 0.1% DMSO or 20 μM of ES20 or ES20-1. Static cultivation was carried out in a 26° C. incubator, and agitated cultivation was carried out at 26° C. with shaking at 220 rpm. […]

maize (Zea mays) = test: Maize seedling root growth; format: in vivo; details: 20 μM, 6-day-old seedlings
Text: (§3) ES20 has broad spectrum inhibitory effect on the growth of both dicotyledonous and monocotyledonous plants (Huang and Zhang, Plant Signal Behav. 2020, 15, 1780039). We tested whether ES20-1 has stronger inhibitory effect on the growth of monocotyledon plants than ES20. We grew rice (Oryza sativa) and maize (Zea mays) seedlings on the same concentrations of ES20 and ES20-1 and compared their effects on growth.

[5] = system: AtCESA6 carrying missense mutations in prc1-1; details: Huang et al., 2020; cited from earlier work
Komagataeibacter xylinus [6] = test: K. xylinus cellulose production in liquid culture; format: cell-based; details: 20 μM
Text: We next grew K. xylinus cells in growth medium supplemented with DMSO, ES20, or ES20-1 under agitation. […] We also grew K. xylinus in liquid medium supplemented with DMSO, ES20, or ES20-1 under static cultivation conditions. Without agitation, pellicles containing cellulose often form at the air-liquid interface. […] To quantify the effects of ES20 and ES20-1 on cellulose production, we harvested the pellicles from these cultures and isolated cellulose from the pellicles.
Komagataeibacter xylinus (previously named Gluconacetobacter xylinus) ATCC strain 700178 was obtained from ATCC (Manassas, Va., USA) to evaluate cellulose production. HS (Hestrin and Schramm) medium was used for culture; HS liquid medium contains 2.0% glucose (w/v), 0.5% yeast extract (w/v), 0.5% peptone (w/v), 0.27% Na2HPO4 (w/v), and 0.15% citric acid (w/v), pH 5.0, and HS solid medium was solidified with 1.8% agar (w/v). To prepare the initial inoculation source, a single K. xylinus colony grown on HS solid medium was transferred to HS liquid medium and cultured at 26° C. for 5 days under static conditions. We used cells from the bottom of the liquid culture as the initial inoculation source to avoid biofilm aggregates at the air-liquid interface. To test the effect of ES20 and ES20-1 on the bacteria growth, initial inoculation source was series diluted and 20 μL culture from each diluted solution was dropped on HS solid medium supplemented with DMSO (0.1%) or different concentrations of ES20 and ES20-1 and cultured at 26° C. for 6 days after the dropped culture was completely dry. To test the effects of ES20 and ES20-1 on cellulose production, the prepared inoculation source was inoculated at a dilution ratio of 1:1000 dilution in HS liquid medium supplemented with 0.1% DMSO or 20 μM of ES20 or ES20-1. Static cultivation was carried out in a 26° C. incubator, and agitated cultivation was carried out at 26° C. with shaking at 220 rpm. To isolate cellulose from pellicles, the pellicles were removed from liquid culture, washed several times with deionized water, and soaked in 0.1 M NaOH at 80° C. for 2 h. The pellicles were washed several times with deionized water to completely remove the alkali. The purified cellulose was dried at 60° C. for ˜1 day until a constant dry mass was reached.

[7] = system: AtCESA6 (cesa6 alleles es20r1-es20r15); details: Huang et al., 2020; cited from earlier work
[8] = target: T2, YFP-AtCESA6 cellulose synthase complexes (CSCs) in root epidermal cells (Arabidopsis thaliana, UniProt Q94JQ6); details: Huang et al., 2020; cited from earlier work
T2 construct: expressed in transfected cells; host or cells: transgenic Arabidopsis thaliana YFP-AtCESA6 seedlings (total protein extract for DARTS; root epidermal cells for imaging)

[9] = system: Rhodobacter sphaeroidesin; test: Rhodobacter sphaeroidesin growth in overnight culture; format: cell-based, Rhodobacter sphaeroides; details: vs DMSO control media
Text: To test the effect of Endosidin20/Cellulosin in bacterial cell growth, we first grew Rhodobacter sphaeroidesin in the presence of Ensodin20/Cellulosin.

GFP-CESA6c^P595S = target: T3, GFP-CESA6c^P595S (Arabidopsis thaliana, UniProt Q94JQ6, P595S); test: MST assay with GFP-CESA6c^P595S; format: binding
T3 construct: We purified AtCESA6 central cytoplasmic domain carrying missense mutation P595S (CESA6c^P595S); made in house; host or cells: E. coli (inferred from the wild-type CESA6c construct that served as template)
Text: as §1, §2

rice (Oryza sativa) = test: Rice seedling root growth; format: in vivo; details: 20 μM, 6-day-old seedlings
Text: as §3

[10] = 5 days static cultivation, vs DMSO

In the case of COc1ccc(C(=O)NC(=S)NNC(=O)c2ccccc2C)cc1 [ES20, Endosidin20], the “crystalline cellulose content in hypocotyl cell wall” value (Arabidopsis Col-0 [1]; mean±SD, n=3) is reported as 109 ± 4 µg/mg, the “reduction of crystalline cellulose levels in the hypocotyl” value (Arabidopsis Col-0 [1]; vs DMSO) is reported as “approximately 35%” and the “interaction with CESA6c” value [2] is reported as “interacted”. For the same molecule, the “inhibition of Arabidopsis thaliana root growth” value (Arabidopsis Col-0 [3]) was “more than 50%”, the “K. xylinus cell growth inhibition” value (Komagataeibacter xylinus [4]; 20 μM and 50 μM) was “inhibit K. xylinus cell growth at both 20 μM and 50 μM concentrations” and the “K. xylinus colony morphology (wrinkles radiating structures)” value (Komagataeibacter xylinus [4]; 20 μM) was “the wrinkles are not obvious”. For the same molecule, the “maize root growth inhibition” value (maize (Zea mays)) was “could inhibit the root growth”, the “sensitivity of transgenic plants with AtCESA6 catalytic site mutations to ES20” value [5] was “also had reduced sensitivity” and the “size of cellulose clusters” value (Komagataeibacter xylinus [6]; 5 days agitated cultivation, vs DMSO) was “smaller”. For the same molecule, the “dry mass of cellulose from pellicles” value (Komagataeibacter xylinus [6]; 5 days static cultivation, mean±SD, n=9) was 268 ± 139 mg/L, the “decrease of dry mass of cellulose from pellicles” value (Komagataeibacter xylinus [6]; [10]) was roughly 45% and the pellicle thickness (Komagataeibacter xylinus [6]; [10]) was “pellicles in cultures containing DMSO are thicker”. For the same molecule, the “sensitivity of es20r1-es20r15 mutants to ES20” value [7] was “reduced sensitivity”, the “effect on CSC motility, density and localization” value [8] was “reduces the motility and density of CSCs at the PM and induces their accumulation at the SmaCCs and Golgi” and the “effect on delivery rate of CSCs to PM” value [8] was “reduced the delivery rate of CSCs to PM”. For the same molecule, the “growth of Rhodobacter sphaeroidesin” value [9] was “significantly slower”, the “interaction with CESA6c^P595S” value (GFP-CESA6c^P595S) was “interacts” and the “rice root growth inhibition” value (rice (Oryza sativa)) was “could inhibit the root growth”.
